According to patent US10471030B2, “Immunomodulatory and differentiating function selective retinoid and rexinoid compounds in combination with immune modulators for cancer immunotherapy” (Io Therapeutics, Inc., priority 2017, dated 2019):

Tests used:
[1] = system: MM H929 cell lines and MM CD138+ primary cells; assay: mRNA expression of B cell and PC markers in MM cells, liquid or BM stroma co-culture (qRT-PCR); type: cell-based, human; settings: 1 μM for 5 days; for expression of differentiation markers: liquid conditions (absence of stroma)
Method: (§1) 24-well plates were coated with 0.1% gelatin in PBS for 30 min at 37° C. The gelatin solution was removed, and the stromal cells were cultured overnight at a density of 5×10^4 cells/well to obtain a confluent monolayer. At that time, MM cell lines or primary MM cells (1×10^5 in 2 ml) were added to the stroma cultures. The stroma cocultures were incubated at 37° C. in RPMI containing 10% FCS, L-glutamine, and P/S, with or without AGN194310 (1 μM for 5 days), R115866 (1 μM for 5 days), IRX5183 (1 μM for 5 days), or BTZ (2.5 nM for 48 hr).
(§2) Total RNA was extracted using the RNeasy Mini Kit (QIAGEN) according to the manufacturer's instructions. cDNA was synthesized by reverse transcription using the iScript cDNA Synthesis Kit (Bio-Rad). qRT-PCR was performed with iTaq SYBR Green Supermix (Bio-Rad) using sequence specific primers. Gene expression was normalized to GAPDH, and relative quantification was calculated using ΔΔCt. All experiments were performed in duplicate and run on the Bio-Rad CFX96 machine.
The BM microenvironment (also called “niche”) limits PC differentiation by modulating retinoid signaling. A population of MM progenitors, phenotypically similar to B cells, is intrinsically resistant to BTZ and contributes to MRD and relapse. To investigate whether the BM niche plays a role in determining the phenotype of MM cells, the mRNA expression of B cell and PC markers in MM H929 cell lines (FIGS. 3A-D) and MM CD138+ primary cells (FIGS. 3E-H) was analyzed following co-culture with mouse BM stroma using human-specific primers. […] In contrast, co-culture of MM cells with BM stroma decreased the mRNA expression of B lymphocyte-induced maturation protein 1 (BLIMP1) and spliced X box-binding protein 1 (XBP1s) (FIG. 3B, C, F, G), which are critical mediators of PC differentiation.
The BM niche regulates hematopoietic stem cell (HSC) differentiation by expressing the retinoid-inactivating enzyme CYP26. CYP26 enzymes were highly expressed in BM mesenchymal cells, while their expression was barely detectable in MM cells. Since retinoid signaling promotes PC differentiation and potentiates Ig secretion, it was determined whether stromal CYP26 is responsible for inducing a B cell phenotype in MM cells. To this end, co-culture conditions were treated with the CYP26 inhibitor R115866 (R115) or the CYP26-resistant RA receptor α-selective (RARα-selective) retinoid IRX5183 (IRX).

MM cells = assay: surface CD138 expression of MM cells (flow cytometry); type: cell-based, human; settings: 1 μM
Method: as §1
Following treatment, MM cells were collected, washed with PBS, and stained for 15 min at room temperature with phycoerythrin-conjugated (PE-conjugated) anti-CD138. Cells were washed to remove unbound antibody and evaluated in a FACSCalibur system (BD Biosciences). Stromal cells were identified by GFP expression, and viable cells were identified using 7-aminoactinomycin D (7-AAD). To calculate cell numbers, live GFP-cells were normalized to calibration beads.
Expression of CD138 is a hallmark of normal PC differentiation as well MM PCs.

[2] = system: MM cell lines and MM CD138+ primary cells; assay: BTZ sensitivity of MM cells, clonogenic or cellular recovery, liquid or BM stroma; type: cell-based, human; settings: for BTZ resistance after separation from BM stroma: H929 cells, 5-day stroma co-culture, fresh media 0 to 48 hr; for sensitivity of MM cells to BTZ: BTZ 2.5 nM for 48 hr
Method: as §1
MM cells were separated from BM stromal cells by gently pipetting several times around the well. Detached cells were centrifuged, resuspended in fresh media, and incubated in a 24-well plate for 1 hr at 37° C. During this short incubation period, contaminating stromal cells attached to the well, while MM cells remained in suspension. MM cells were then recovered by gently pipetting. This protocol was used for qRT-PCR and CFU coculture experiments. The purity achieved using this protocol was confirmed by flow cytometry to be 98%-99% MM cells and less than 2% contaminating stroma.
After treatment, MM cells were collected, washed with PBS, and plated at a density of 5,000 cells/ml in 1 ml of 1.32% methylcellulose supplemented with 30% FBS, 10% BSA, L-glutamine, P/S, and 0.1 mM β-ME. Cells were plated in triplicate in 35-mm culture dishes, incubated at 37° C., and scored for the presence of colonies 14 days later.
To determine whether decreased retinoid signaling contributes to BTZ resistance within the BM niche, MM cell lines and MM CD138+ primary cells were incubated with BM stroma for 5 days, followed by BTZ treatment.
Strategies to overcome microenvironment-dependent chemoprotection have focused on mobilization of cancer cells from the BM niche into the peripheral circulation. It was analyzed whether the change in phenotype and subsequent BTZ resistance of MM cells were lost upon separation from the BM stroma, a process that mimics mobilization. To this end, H929 cells were separated from BM mesenchymal cells following a 5-day stroma co-culture, incubated in fresh media (RPMI with 10% FBS) for 0 to 48 hr, and then treated with BTZ. […] Thus, microenvironment-dependent BTZ resistance induced by the change in MM cell phenotype may not immediately be reversed by tumor mobilization.

[3] = system: Naive CD4+ CD25− FoxP3− cells; assay: Treg cell differentiation from naive T cells in vitro (FoxP3-GFP, flow cytometry); type: cell-based, mouse; settings: in vitro assay; data not shown
Method: (§3) To determine whether a RARα agonist could affect T cell differentiation, T cells were incubated with a RARα agonist to determine its effect on Foxp3 expression. Naive CD4^+ CD25^− FoxP3^− cells were purified from a Foxp3-GFP mouse using flow cytometry by sorting and isolating based upon a GFP^− phenotype. These cells were activated polyclonally with αCD3 in vitro in the presence of IL-2 and TGF-β. These cells were then cultured in media with various concentrations of compound IRX5183 (a RARα agonist) and the expression of FoxP3-GFP was analyzed by flow cytometry. The RARα agonist compound IRX5183 enhanced differentiation of immunosuppressive Treg cells and inhibited differentiation of inflammatory TH17 cells from naïve T cells in vitro (Table 2).

[4] = system: Naive CD4+ CD25− FoxP3− cells; assay: Th17 cell differentiation from naive T cells in vitro; type: cell-based, mouse; settings: in vitro assay; data not shown
Method: as §3

CD4+ T cells = assay: in vivo T cell differentiation in mice (FoxP3 expression in CD4+ T cells of blood and spleen); design: species or system mouse; settings: in vivo assay; data not shown
Method: To expand on the finding above, the in vivo effects of a RARα agonist on T cell differentiation was evaluated in a mouse model. Mice were treated with 100 μg of compound IRX5183 or an equivalent volume of DMSO (vehicle control) every other day for 10 days. Lymphocytes from the blood and spleen were then isolated and FoxP3 expression in CD4^+ T cells was assessed.

B16F10 tumor cells = assay: survival of C57BL/6 mice engrafted with B16F10 tumor cells; type: in vivo; settings: at 50 days; 10 nM RARγ agonist; vehicles only 0%
Method: The anti-tumor effects of anti-CTLA-4 antibody treatment combined with 10 nM RAR ? agonist (AGN204647 (IRX4647)) are examined in C57BL/6 mice engrafted with B16F10 tumor cells. […] The survival rate of the mice treated with anti-CTLA-4 antibody alone is 40% at 50 days while the mice treated with RAR ? agonist alone have a 30% survival in the same time.

NB4 cells = assay: CFU experiments off and on stroma, NB4 cells; type: cell-based; settings: 10^−7 M ATRA, IRX5183, or 10^−8 M AM80
Text: (§4) Data across three independent experiments.

OCI-AML3 cells = assay: CFU experiments off and on stroma, OCI-AML3 cells; type: cell-based; settings: 10^−6 M ATRA, IRX5183, or 10^−7 M AM80
Text: as §4

Kasumi-1 cells = assay: CFU experiments off and on stroma, Kasumi-1 cells; type: cell-based; settings: 10^−6 M ATRA, IRX5183, or 10^−7 M AM80
Text: as §4

[5] = system: H929 luciferase+ (Luc+) cells; assay: systemic MM xenograft, bioluminescence; type: in vivo, NSG mice; settings: monotherapy, 4 weeks; BTZ 0.5 mg/kg i.p. twice weekly, IRX 10 mg/kg once daily
Method: For the systemic MM model, 2×10^6 Luc+/GFP+ H929 cells were injected via the tail vein into 16-week-old male NSG mice. After engraftment, as determined by an exponential increase in bioluminescence, mice were treated with BTZ (0.5 mg/kg i.p.) twice weekly and with IRX (10 mg/kg) once daily. Tumor burden was assessed by bioluminescence, as above.
To test whether retinoids can enhance BTZ activity in MM, a systemic MM xenograft was developed by injecting 2×10^6 H929 luciferase+ (Luc+) cells via the tail vein of non-obese, diabetic, severe combined immunodeficiency IL-2 receptor γ-KO (NSG) mice. The animals were randomized to receive IRX, BTZ, or a combination of both, and disease burden was followed weekly by bioluminescence imaging (FIG. 6).

H929 Luc+ cells = assay: subcutaneous xenograft model of MM-niche interactions with WT or Smo-KO stroma, bioluminescence; type: in vivo, NSG mice; settings: BTZ 0.5 mg/kg i.p. twice weekly
Method: 1×10^6 H929 Luc+ cells and 1×10^6 mouse BM stromal cells were resuspended in 100 μl […]®, diluted with RPMI (1:1), and injected subcutaneously into 16-week-old male NSG mice. After 4 days, treatment with BTZ (0.5 mg/kg i.p. twice weekly) and IRX (10 mg/kg i.p. daily) was initiated. Tumor burden was assessed by bioluminescence using the In Vivo Imaging System (PerkinElmer). For imaging, mice were exposed to 120 mg/kg D-luciferin via intraperitoneal injection […] before imaging and were anesthetized using isoflurane. Images were analyzed with Living Image Software, version 2.5 (PerkinElmer), and data were quantified as photons/second.
To study to what extent an RA-low environment created by the BM stroma and enhanced by MM cells via paracrine Hedgehog signaling contributes to BTZ resistance, a xenograft model of MM-niche interactions was developed. Each mouse carried 2 subcutaneous tumors consisting of H929 Luc+ cells and either WT (anterior tumors) or Smo-KO stroma (posterior tumors). Mice were treated with IRX (10 mg/kg i.p. daily), BTZ (0.5 mg/kg i.p. twice weekly), or a combination of both. The growth of tumors bearing WT or Smo-KO stroma was not different in untreated or IRX-treated groups (FIGS. 9 and 10). […] While some tumors in the treatment group receiving combined IRX and BTZ appeared to have regressed completely, even after anatomical study, this was not the case for all the mice in this group.

CYP26A1 = assay: stromal CYP26A1 expression in BM stromal cells (qRT-PCR); type: cell-based; settings: for CYP26A1 expression on BM stromal cells: soluble factors tested
Method: as §2

CCc1ccc(C2=CC(C)(C)Sc3ccc(C#Cc4ccc(C(=O)O)cc4)cc32)cc1 [AGN194310]
expression of differentiation markers [1]: mimicked the changes induced by BM stromal cells | surface CD138 expression (MM cells; without stroma): markedly decreased | BTZ sensitivity of MM cells ([2]; liquid, 1 μM for 5 days, then BTZ): decreasing BTZ sensitivity

CCOc1c(Br)cc(C(=O)Nc2ccc(C(=O)O)cc2)cc1C(=O)c1ccc(C)cc1 [AGN196996]
Treg cell numbers [3]: decreases Treg cell numbers | Th17 cell numbers [4]: increases Th17 cell numbers | Th17 cell numbers (CD4+ T cells): increases Th17 cell numbers | Treg cell numbers (CD4+ T cells): decreases Treg cell numbers

CC1(C)CCC(C)(C)c2cc(C(/C=C/c3cccc(C(=O)O)c3)=N/O)ccc21 [AGN204647]
survival rate (B16F10 tumor cells): 30%

CC1(C)CCC(C)(C)c2cc(NC(=O)c3ccc(C(=O)O)cc3)ccc21 [AM80, 4-[(5,6,7,8-tetrahydro-5,5,8,8-tetramethyl-2-naphthalenyl)carbamoyl]benzoic acid]
clonogenic growth (CFU) (NB4 cells): decrease in clonogenic growth compared to control | clonogenic growth (CFU) (OCI-AML3 cells): decrease in clonogenic growth compared to control | clonogenic growth (CFU) (Kasumi-1 cells): decrease in clonogenic growth compared to control

CC1=C(/C=C/C(C)=C/C=C/C(C)=C/C(=O)O)C(C)(C)CCC1 [ATRA, all-trans retinoic acid]
clonogenic growth (CFU) (NB4 cells): stroma blockage | clonogenic growth (CFU) (OCI-AML3 cells): stroma blockage | clonogenic growth (CFU) (Kasumi-1 cells): stroma blockage

CC(C)C[C@H](NC(=O)[C@H](Cc1ccccc1)NC(=O)c1cnccn1)B(O)O [BTZ, bortezomib]
BTZ resistance after separation from BM stroma ([2]; then BTZ): remained partially resistant to BTZ for up to 48 hr | sensitivity of MM cells to BTZ ([2]; absence of BM stroma (liquid)): highly sensitive | sensitivity of MM cells to BTZ ([2]; after 5 days incubation with BM stroma): induced BTZ resistance | tumor burden (bioluminescence) [5]: decreased tumor growth compared with untreated controls | response of tumors carrying Smo-KO stroma (bioluminescence) (H929 Luc+ cells): significant response | response of tumors with WT stroma (bioluminescence) (H929 Luc+ cells): refractory to BTZ treatment

CCC(CC)C(c1ccc(Nc2nc3ccccc3s2)cc1)n1cncn1 (stereo not shown) [Compound R115866]
mRNA expression of BCL6, BLIMP1, XBP1s, CHOP markers ([1]; BM stroma co-cultures): restored all markers to levels comparable to those of liquid control conditions | expression of differentiation markers [1]: did not significantly affect | surface CD138 expression (MM cells; BM stromal cell co-cultures): restored CD138 expression | stroma-induced BTZ resistance ([2]; BM stroma with 1 μM test agent for 5 days, then BTZ 2.5 nM for 48 hr): overcome | BTZ resistance after separation from BM stroma ([2]; then BTZ): prevented the development of a BTZ-resistant phenotype

CC1=C2C[C@H]3[C@@H](CC=C4C[C@@H](O)CC[C@@]43C)[C@@H]2CC[C@]12O[C@@H]1C[C@H](C)CN[C@H]1[C@H]2C [cyclopamine]
stromal Cyp26a1 upregulation by MM cells (CYP26A1; co-culture with MM cells): partially overcame

IL-6: cytokine, soluble factor tested
CYP26A1 expression on BM stromal cells (CYP26A1): no significant effects

TNF-α
CYP26A1 expression on BM stromal cells (CYP26A1): no significant effects
